Measured values published in publication PMC8507696, “Effect of Peptide Receptor Radionuclide Therapy in Combination with Temozolomide against Tumor Angiogenesis in a Glioblastoma Model” (Cancers, 2021).

Legend:
integrin αvβ3 = test: anti-integrin αvβ3 immunohistochemical staining of dissected tumor tissues; type: in vivo, BALB/c nu/nu nude mice; conditions: TMZ 5 mgkg^−1, after 2 weeks
Description: Tumor tissues were harvested on day 14 after the treatment and immediately fixed in 10% formalin solution. Frozen tissue sections (5 μm) were placed onto glass slides. The tumor sections were stained with anti-integrin αvβ3 rabbit antibody (1:1000, Millipore) at 4 °C for 16 h. The sections were then incubated with anti-rabbit secondary antibody (biotinylated) at room temperature for 1 h. The detection system (Vector Laboratories, Burlingame, CA, USA) was applied according to the manufacturer’s instructions. The nuclei were counter-stained with hematoxylin (Invitrogen, Carlsbad, CA, USA). For assessment of tumor vascularization, mouse anti-human CD31 monoclonal antibody (diluted 1:40, Dako) staining was performed on acetone-fixed cryosections using a blood vessel staining kit (ECM590, Millipore Ireland, Cork, Ireland). For another assessment of integrin αvβ3 receptors in dissected tumor tissues, anti-integrin αvβ3 (SC-7312, Santa Cruz Biotech, Santa Cruz, CA, USA) was used. Primary antibody against γH2AX (diluted 1:50, Abcam) was applied to acetone-fixed cryosections and incubated overnight. […] Images were acquired using Axioscope A1 fluorescent microscope (Carl Zeiss, Jena, Germany) or AxioCam MRc5 (Carl Zeiss, Jena, Germany) and analyzed with Axiovision software (version 4.4, Carl Zeiss Meditec, Jena, Germany). […]

U87-MG xenografts = test: combination therapy of TMZ with 188Re-IDA-D-[c(RGDfK)]2: tumor volume; type: in vivo, BALB/c nu/nu nude mice; conditions: TMZ 2 or 5 mgkg^−1 once a week for 14 days, n = 4
Description: A suspension of human glioblastoma U87-MG cells was prepared (5 × 10^6 cellsmL^−1). A total of 0.1 mL of cell suspension was injected subcutaneously into the right flank of a 6–7-week-old male BALB/c nu/nu nude mice (20–25 g, Orient Bio Inc., Seongnam, Korea). In the case of pharmacokinetic studies of ^99mTc-IDA-D-[c(RGDfK)]2, we used tumor xenograft mice whose tumor cells were inoculated in the right shoulder and performed the SPECT imaging study when tumor volume reached 68.7 ± 18.8 mm^3 at 10 days after injection of U87-MG cells. Evaluations of integrin-targeted blocking and radiotherapy treatment on the growth of U87-MG xenografts were carried out when tumor volume reached 59.4 ± 14.9 mm^3 (For authentic “cold” Re-peptide (^185/187Re-IDA-D-[c(RGDfK)]2) treatment) and 66.2 ± 15.3 mm^3 (For radiotherapy (^188Re-IDA-D-[c(RGDfK)]2) treatment) at 10 days after injection of U87-MG cells. Experiments with vehicle, negative control peptide (^188Re-IDA-D-[c(RADfK)]2) or ^188Re-IDA-D-[c(RGDfK)]2 treatments (11.1 MBq) in U87-MG xenografts were carried out when tumor volume reached 40.3 ± 14.8 mm^3 at 9 days after injection of U87-MG cells. […]
For caliper measurements, tumor length (longitudinal diameter) and tumor width (transverse diameter) were measured, and the tumor volume was calculated according to the following formula: tumor volume = (length × width^2)/2.

SMILES: Cn1nnc2c(C(N)=O)ncn2c1=O [TMZ, Temozolomide]
- integrin expression in tumor tissues (integrin αvβ3): reduced integrin expression
- tumor size compared with saline treatment (U87-MG xenografts): significantly reduced tumor size
